Among the data in the Kinase Knowledgebase extract (Sharma et al. 2016) are IC50, Ki and inhibition values, retold here.

Several values for one entry are separate records, joined by “and”; a condition that tells them apart may be missing. Equal entries are not always repeated.

One test has as its target CDK2 (UniProt P24941). Kind of test: Enzyme Assay.
Details: not given
`CC(=O)Nc1ncc(SCc2ncc(Cc3ccccc3)o2)s1`: the IC50 is 350 nM.

In turn, `Nc1n[nH]c(N)c1N=Nc1ccc(I)cc1` gave an IC50 of 100000 nM.

Regarding `COCCCCNc1nc(N[C@H]2CC[C@H](N)CC2)nc2c1ncn2C1CCCC1`, the concentration for half-maximal inhibition (IC50) was 40 nM.

With `CCCCOc1cc(N)nc(N)c1C(=O)c1c(F)cccc1F`, the IC50 stood at 1320 nM. Compared with the last compound, the IC50 is about 33-fold higher.

The compound `CN(C)CC(O)COc1ccc(Nc2cc(Nc3ccccc3)ncn2)cc1` (stereo unspecified) showed an IC50 of more than 100000 nM.

The compound `CCn1cnc2c(Nc3ccc(P(=O)(O)CP(=O)(O)O)cc3)nc([C@H]3CC[C@H](N)CC3)nc21` displayed a half-maximal inhibitory concentration (IC50) of 2010 nM.

For the compound `CCC(=O)NS(=O)(=O)c1ccc(Nc2nc(N)n(C(=O)c3c(F)cccc3F)n2)cc1`, the IC50 was 280 nM.

`COc1ccc(F)cc1C(=O)c1cnc(NC2=CCN(S(C)(=O)=O)CC2)nc1N` had a Ki of 7 nM.

In turn, `CCc1n[nH]c2c(N/C=C/C(C)C)ncnc12` showed a 50% inhibitory concentration (IC50) of 41000 nM. This lies in the double-digit micromolar range.

For `COc1ccc(-c2[nH]nc3c2C(=O)c2c(NC(=O)N(C)C)cccc2-3)cc1`, the half-maximal inhibitory concentration (IC50) stood at 5 nM.

The compound `COc1ccc2cnc(Nc3ccc(N4CCN(C(=O)OC(C)(C)C)CC4)cc3)nc2c1C1CCCC1` returned an IC50 of 5000 nM.

On to `Clc1cc(Cl)cc(Nc2nc(OCC3CCCCC3)c3nc[nH]c3n2)c1`, for which the 50% inhibitory concentration (IC50) was determined as 12000 nM. This IC50 is about 2.4-fold higher than that of the compound before.

Compound `CCc1cnc(CSc2cnc(NC(C)=O)s2)o1` showed an IC50 of less than 50000 nM.

`Cc1cc2cnc(Nc3ccc(N4CCNCC4)cn3)nc2n(C2CCCC2)c1=O` yielded an IC50 of more than 4050 nM.

As to `N#Cc1cccc(Nc2nnc3ccc(Nc4ccccc4)nn23)c1`, the Ki is less than 2000 nM.

`Nc1nc(Nc2cccnc2)nn1-c1ccc2ccccc2n1`: the IC50 was determined as 400 nM.

`CCn1c(-c2nonc2N)nc2cnc(Oc3cccc(N)c3)cc21` returned an IC50 of 5760 nM.

For `N[C@H]1CC[C@H](Nc2nc(NCc3ccc4c(c3)OCO4)c3ncn(C4CCCC4)c3n2)CC1`, the IC50 is 5100 nM.

`N[C@H](COc1cncc(-c2ccc3cnccc3c2)c1)Cc1c[nH]c2ccccc12` showed an inhibition constant Ki of 82 nM.

Regarding `CC(C)n1cnc2c(NCc3ccc(-c4ccsc4)cc3)nc(N[C@H]3CC[C@H](N)CC3)nc21`, the IC50 is 500 nM.

Compound `CCN1CCc2[nH]c(-c3n[nH]cc3NC(=O)c3c(F)cccc3F)nc2C1` displayed an IC50 of less than 1000 nM.

The compound `COc1ccc(OC)c(CCC(=O)N2CCC(Nc3nc(N[C@H]4CC[C@H](N)CC4)nc4c3ncn4C3CCCC3)CC2)c1` registered an IC50 of 58 nM.

`O=C1NC(=O)c2c1c1c3ccccc3[nH]c1c1[nH]c3ccccc3c21` yielded an IC50 of 900 nM.

On to `Cc1c(Br)c(=O)n(C2CCCC2)c2nc(Nc3ccc(N4CCNCC4)cc3)ncc12`, for which the IC50 stood at 439 nM.

With `Fc1ccc(Nc2nccc(-c3c[nH]c4ccccc34)n2)cc1`, the IC50 was more than 100000 nM.

`O=C1NCCCCCNc2nc(ncc2Br)Nc2cccc1c2`: the 50% inhibitory concentration (IC50) was 7000 nM.

The compound `CCn1c(-c2nonc2N)nc2cnccc21` had an IC50 of 418 nM.

With `CCc1coc(CSc2cnc(NC(C)=O)s2)n1`, the half-inhibitory concentration (IC50) was less than 50000 nM.

`Cc1n[nH]c2c(N/C=C/C(C)C)ncnc12` yielded an IC50 of 44000 nM.

On to `O=C1Nc2ccc3ncccc3c2/C1=C/Nc1ccc(CN2CCOCC2)cc1`, for which the IC50 is less than 100 nM.

The compound `CCN(CC)CCNC(=O)c1ccc(Nc2cc(-c3cccc(F)c3)n3ncnc3n2)cc1` displayed an IC50 of 14100 nM. This lies in the double-digit micromolar range.

Regarding `Cc1c(CNCC(C)(C)C)cncc1-c1ccc2[nH]nc(-c3nc4ccccc4[nH]3)c2c1`, the Ki amounted to 1.9 nM.

As for `CCNCc1cncc(-c2ccc3[nH]nc(-c4nc5c(C(=O)NC)cccc5[nH]4)c3c2)c1C`, the inhibitory constant (Ki) was 0.25 nM.

For `COc1ccc2cnc(Nc3ccc(N4CCOCC4)cc3)nc2c1C(C)C`, the concentration for half-maximal inhibition (IC50) came out at 4400 nM.

Compound `COc1ccc2cnc(Nc3ccc(N4CCNCC4)cc3)nc2c1C1CCCC1` displayed an IC50 of 250 nM.

`CCCNc1nc(N[C@H]2CC[C@H](N)CC2)nc2c1ncn2C1CCCC1` displayed an IC50 of 11 nM.

On to `CCc1cnc(CSc2cnc(N)s2)o1`, for which the IC50 was less than 50000 nM.

In turn, `O=C(Nc1c[nH]nc1-c1nc2c([nH]1)CCN(CCF)C2)c1c(F)cccc1F` registered an IC50 of less than 1000 nM.

As for `Cc1ccncc1-c1ccc2[nH]nc(/C=C/c3ccccc3)c2c1`, the inhibition constant Ki was 250 nM. In other words, the sub-micromolar range.

`O=C1Nc2ccc3c(c2/C1=C/c1[nH]cc(C(=O)N2CCCCC2)c1-c1ccccc1)CCOS3(=O)=O` came in with a concentration for half-maximal inhibition (IC50) of 1870 nM.

The compound `COc1ccc(Nc2nccc(-c3c[nH]c4ccccc34)n2)cn1` registered an IC50 of 2600 nM.

Regarding `CC(C)(C)C(=O)Nc1ncc(SCc2ncc(C(C)(C)C)o2)s1`, the IC50 is less than 50000 nM.

For the compound `COC(=O)[C@@]1(O)C[C@H]2O[C@]1(C)n1c3ccccc3c3c4c(c5c6ccccc6n2c5c31)C(=O)N[C@H]4CCCCCCC[C@@H]1NC(=O)c2c1c1c3ccccc3n3c1c1c2c2ccccc2n1[C@H]1C[C@](O)(C(=O)OC)[C@]3(C)O1`, the IC50 came to 120000 nM.

In turn, `CC(=O)Nc1ncc(SCc2ncc(C(C)(C)C)o2)s1` returned a half-maximal inhibitory concentration (IC50) of less than 50000 nM.

With `C=C1NC(=O)c2c1c1c3ccccc3[nH]c1c1[nH]c3ccccc3c21`, the half-inhibitory concentration (IC50) is more than 1000 nM.

With `N[C@H]1CC[C@H](Nc2nc(NC3CCC(O)CC3)c3ncn(C4CCCC4)c3n2)CC1` (stereo partly specified), the half-maximal inhibitory concentration (IC50) came out at 50 nM.

In the case of `Cc1nc[nH]c1/C=C1\C(=O)Nc2ncnc(N3CCOCC3)c21`, the 50% inhibitory concentration (IC50) stood at 40 nM. The IC50 values of the last two compounds are within 1.5-fold of each other.

Take `CCN(CC)CCNC(=O)c1ccc(Nc2cc(-c3ccc(C)cc3)n3ncnc3n2)cc1`: the concentration for half-maximal inhibition (IC50) was more than 200000 nM.

`CC(C)(C)c1cnc(CSc2cnc(Nc3ccc(CS(=O)(=O)NCCO)cc3)s2)o1`: the IC50 stood at 2 nM.

On to `COc1ccc(-c2ccc3c(c2)C(c2nc4ccccc4[nH]2)NN3)cc1` (stereo unspecified), for which the inhibition constant (Ki) turned out to be 790 nM.

As for `CN(C)CCCc1c(/C=C2\C(=O)Nc3ccc4c(c32)CCOS4(=O)=O)[nH]c2ccccc12`, the concentration for half-maximal inhibition (IC50) stood at 417 nM.

As for `CC(C)CCOc1cc2cnc(Nc3ccc(N4CCNCC4)cn3)nc2n(C2CCCC2)c1=O`, the IC50 was more than 5000 nM.

`Nc1nc(N)c(N=O)c(OCC2CC=CCC2)n1` (stereo unspecified): the IC50 was 4000 nM and 6000 nM.

`O=C1NCCCCCNc2ccnc(n2)Nc2cccc1c2`: the IC50 is more than 10000 nM.

As to `CCOC(=O)c1c(C)c2cnc(Nc3ccc(N4CCNCC4)cc3)nc2n(C2CCCC2)c1=O`, the IC50 stood at 5000 nM.

In the case of `Ic1cnc2c(NCCc3cccnc3)nc(-c3ccccc3)cn12`, the concentration for half-maximal inhibition (IC50) came to 530 nM.

Take `O=S1(=O)C=Cc2cnc(Nc3ccc(N4CCNCC4)cc3)nc2N1C1CCCC1`: the IC50 was found to be 145 nM. Compared with the last compound, the IC50 is about 3.7-fold lower.

With `COc1ccc(Cn2c(=O)c3cnc(Nc4ccc(N5CCN(C)CC5)cc4)nc3n(C(C)C)c2=O)cc1`, the IC50 is more than 40000 nM.

`CCOC(=O)c1c[nH]c(/C=C2\C(=O)Nc3ccc4c(c32)CCOS4(=O)=O)c1C`: the concentration for half-maximal inhibition (IC50) was found to be 66 nM. This lies in the double-digit nanomolar range.

For the compound `COC(=O)[C@@]1(O)C[C@H]2O[C@]1(C)n1c3ccccc3c3c4c(c5c6ccccc6n2c5c31)C(=O)N[C@H]4CCc1ccccc1`, the IC50 was found to be 37 nM. This IC50 lies about 1.8-fold lower than the previous one.

The compound `COc1ccc2cnc(Nc3ccc(N4CCC(N)C4)cc3)nc2c1C(C)C` (stereo unspecified) gave a half-maximal inhibitory concentration (IC50) of 2550 nM.

The test is the same for the next values; noted with them: concentration not given here.
`O=C(Nc1cccc(C(=O)c2ccc3c(/C=C/c4ccccc4)n[nH]c3c2)c1)c1ccccc1`: the inhibition was 0%.

With `CN(C)c1ccc(Nc2nc(N)c(C(=O)OC(C)(C)C)s2)cc1`, the inhibition came out at 0%.

In turn, `O=C(Nc1cccc(Oc2ccc3c(/C=C/c4ccccc4)n[nH]c3c2)c1)c1ccccc1` gave an inhibition of 0%.

`Nc1nc(N)c(N)c(OCC2CC=CCC2)n1` (stereo unspecified) yielded an inhibition of 8%.

In turn, `Cc1ccc2cc(NC(=O)c3cccc(SCc4cc(Nc5ccccc5)n[nH]4)c3)ccc2n1` showed an inhibition of 23%.
